Structures are written as SMILES.

What all share (format): cell-based
In test [1] the test system is PRMT5 (SDMA) in HAP1 MTAP-intact cell line. The experiment in a line: SDMA in-cell western assay, HAP1 MTAP-intact cell line. Particulars: Homo sapiens, HAP1 MTAP-intact cell line (endogenous MTAP), read-out: Hap 1 MTAP intact IC50. The text has this:
(§1) HAP1 MTAP-intact is a cell line in which endogenous levels of MTAP are expressed, and HAP1 MTAP-deleted is an MTAP-null cell line.

In test [2] the test system is PRMT5 (SDMA) in HAP1 MTAP-deleted cell line. The experiment in a line: SDMA in-cell western assay, HAP1 MTAP-deleted cell line. Particulars: for IC50 / IC90: Homo sapiens, SDMA in-cell western, HAP1 MTAP-deleted (MTAP-null) cell line; for Hap1 MTAP intact/deleted ratio: ratio of SDMA in-cell western IC50 in HAP1 MTAP-intact to IC50 in HAP1 MTAP-deleted cell line.
From the text: as §1

The subject of test [3] is HAP1 MTAP-deleted cell line. The experiment in a line: viability assay for the MTAP-deleted cell line. The following applies: Homo sapiens.

Usually IC50 stands for the point on the concentration scale where inhibition reaches its midpoint. What is called IC90 is the point of the concentration-response curve where the effect stands at 90%. In the case of `Cc1ccc([C@H]2CN(C(=O)C3(C(F)(F)F)CC3)[C@H](C)CN2C(=O)C(=O)Nc2cnc(N)c(C)c2)cc1` [Compound 128, N-(6-amino-5-methylpyridin-3-yl)-2-((2S,5R)-5-methyl-2-(p-tolyl)-4-(1-(trifluoromethyl)cyclopropanecarbonyl)piperazin-1-yl)-2-oxoacetamide], in test [1], the IC50 was more than 50 nM. Moreover, in test [2], the IC50 is 5 to 50 nM, the IC90 was in the range of 75 to 125 nM and the “Hap1 MTAP intact/deleted ratio” value is listed as “B (an IC50 ratio greater than or equal to 15 fold but lower than 30 fold)”. Further, in test [3], the IC50 was less than 100 nM.

For `C[C@@H]1CN(C(=O)C(=O)Nc2cncc3cn[nH]c23)[C@@H](c2ccc(F)cc2)CN1C(=O)OC(C)(C)C` [Compound 129, (2R,5S)-tert-butyl 4-(2-((1H-pyrazolo[4,3-c]pyridin-7-yl)amino)-2-oxoacetyl)-5-(4-fluorophenyl)-2-methylpiperazine-1-carboxylate], in test [1], the IC50 is more than 50 nM. In addition, in test [2], the concentration for half-maximal inhibition (IC50) was in the range of 5 to 50 nM, the 90% effect concentration (IC90) was more than 125 nM and the “Hap1 MTAP intact/deleted ratio” value is “A (an IC50 ratio greater than or equal to 30 fold)”. This compound also registered an IC50 in test [3] of 100 to 1000 nM.

Regarding `CCc1cc(NC(=O)C(=O)N2C[C@@H](C)N(C(=O)C(C)(C)C)C[C@@H]2c2ccc(N3CCN(C)CC3)cc2)cnc1N` [Compound 130, N-(6-amino-5-ethylpyridin-3-yl)-2-((2S,5R)-5-methyl-2-(4-(4-methylpiperazin-1-yl)phenyl)-4-pivaloylpiperazin-1-yl)-2-oxoacetamide], the IC50 in test [1] is 5 to 50 nM; in test [2], less than 5 nM; in test [3] it was less than 100 nM. The same compound yielded an IC90 in test [2] of less than 75 nM. Besides, the “Hap1 MTAP intact/deleted ratio” value in test [2] is “C (an IC50 ratio of less than 15 fold)”.

As for `Cc1cc(NC(=O)C(=O)N2C[C@@H](C)N(C(=O)C3(C(F)(F)F)CC3)C[C@@H]2c2ccc(Cl)cc2)cnc1N` [Compound 131, N-(6-amino-5-methylpyridin-3-yl)-2-((5R)-2-(4-chlorophenyl)-5-methyl-4-(1-(trifluoromethyl)cyclopropanecarbonyl)piperazin-1-yl)-2-oxoacetamide], in test [1], the IC50 is more than 50 nM. Further, in test [2], the IC50 was less than 5 nM, the 90% effect concentration (IC90) lay in the range of 75 to 125 nM and the “Hap1 MTAP intact/deleted ratio” value is given as “C (an IC50 ratio of less than 15 fold)”. In test [3], this compound showed an IC50 of 100 to 1000 nM.

For `CCc1cc(NC(=O)C(=O)N2C[C@@H](C)N(C(=O)C3(C(F)(F)F)CC3)C[C@@H]2c2ccc(N3CCN(C)CC3)cc2)cnc1N` [Compound 132, N-(6-amino-5-ethylpyridin-3-yl)-2-((2S,5R)-5-methyl-2-(4-(4-methylpiperazin-1-yl)phenyl)-4-(1-(trifluoromethyl)cyclopropanecarbonyl)piperazin-1-yl)-2-oxoacetamide], the values for the concentration for half-maximal inhibition (IC50) in test [1], in test [2] and in test [3] were 5 to 50 nM, less than 5 nM and less than 100 nM, respectively. The compound further displayed an IC90 in test [2] of less than 75 nM. For the same compound, the “Hap1 MTAP intact/deleted ratio” value in test [2] is “C (an IC50 ratio of less than 15 fold)”.

On to `CC(C)C(=O)N1C[C@H](c2cccc(Cl)c2)N(C(=O)C(=O)Nc2cnc(N)c(C3CC3)c2)C[C@H]1C` [Compound 133, N-(6-amino-5-cyclopropylpyridin-3-yl)-2-((2S,5R)-2-(3-chlorophenyl)-4-isobutyryl-5-methylpiperazin-1-yl)-2-oxoacetamide], for which the IC50 in test [1] is more than 50 nM. Besides, in test [2], the IC50 lay within 5 to 50 nM, the 90% effect concentration (IC90) was less than 75 nM and the “Hap1 MTAP intact/deleted ratio” value was “B (an IC50 ratio greater than or equal to 15 fold but lower than 30 fold)”. The compound also yielded a half-inhibitory concentration (IC50) in test [3] of less than 100 nM.

Take `Cc1cc(NC(=O)C(=O)N2C[C@@H](C)N(C(=O)C(C)(C)CN3CCN(C)CC3)C[C@@H]2c2ccccc2)cnc1N` [Compound 134]: the values for the IC50 in test [1], in test [2] and in test [3] were 5 to 50 nM, 5 to 50 nM and less than 100 nM, respectively. Further, in test [2], the 90% effect concentration (IC90) was more than 125 nM. Moreover, the “Hap1 MTAP intact/deleted ratio” value in test [2] is listed as “C (an IC50 ratio of less than 15 fold)”.
